Measured values: patent publication US20170189504A1, “NOVEL PEPTIDES AND COMBINATION OF PEPTIDES FOR USE IN IMMUNOTHERAPY AGAINST VARIOUS CANCERS” (immatics biotechnologies GmbH, priority 2015, published 2017)

System: HLA-A*02
Experiment: MHC binding assay, UV-ligand exchange with β2m ELISA, HLA-A*02 (Table 20)
Parameters: species or system human
Settings: binding to HLA-A*02 ranged by peptide exchange yield (UV-ligand exchange, β2m ELISA)
Text: Candidate peptides for T cell based therapies according to the present invention were further tested for their MHC binding capacity (affinity). The individual peptide-MHC complexes were produced by UV-ligand exchange, where a UV-sensitive peptide is cleaved upon UV-irradiation, and exchanged with the peptide of interest as analyzed. Only peptide candidates that can effectively bind and stabilize the peptide-receptive MHC molecules prevent dissociation of the MHC complexes. To determine the yield of the exchange reaction, an ELISA was performed based on the detection of the light chain ((β2m) of stabilized MHC complexes. The assay was performed as generally described in Rodenko et al. (Rodenko et al., 2006).
96 well MAXISorp plates (NUNC) were coated over night with 2 ug/ml streptavidin in PBS at room temperature, washed 4× and blocked for 1 h at 37° C. in 2% BSA containing blocking buffer. Refolded HLA-A*02:01/MLA-001 monomers served as standards, covering the range of 15-500 ng/ml. Peptide-MHC monomers of the UV-exchange reaction were diluted 100 fold in blocking buffer. Samples were incubated for 1 h at 37° C., washed four times, incubated with 2 ug/ml HRP conjugated anti-β2m for 1 h at 37° C., washed again and detected with TMB solution that is stopped with […]. Absorption was measured at 450 nm. Candidate peptides that show a high exchange yield (preferably higher than 50%, most preferred higher than 75%) are generally preferred for a generation and production of antibodies or fragments thereof, and/or T cell receptors or fragments thereof, as they show sufficient avidity to the MHC molecules and prevent dissociation of the MHC complexes.

| Peptide exchange | Substance |
| --- | --- |
| +++ (50%-75% = +++) | 148 (MLAGIAITV; listed as Homo sapiens) [compound 148] |
| +++ (50%-75% = +++) | 47 (ALLERGELFV; listed as Homo sapiens) [compound 47] |
| +++ (50%-75% = +++) | 143 (ALLPELREV; listed as Homo sapiens) [compound 143] |
| +++ (50%-75% = +++) | 135 (HLSTIIHEA; listed as Homo sapiens) [compound 135] |
| ++++ (≧75% = ++++) | 51 (LLFSRLCGA; listed as Homo sapiens) [compound 51] |
| +++ (50%-75% = +++) | 75 (AVIKFLELL; listed as Homo sapiens) [compound 75] |
| +++ (50%-75% = +++) | 68 (SLSNRLYYL; listed as Homo sapiens) [compound 68] |
| +++ (50%-75% = +++) | 67 (TLLQRLTEV; listed as Homo sapiens) [compound 67] |
| ++ (20%-49% = ++) | 254 (KLQGKLPEL; listed as Homo sapiens) [compound 254] |
| ++ (20%-49% = ++) | 146 (ALHFSEDEI; listed as Homo sapiens) [compound 146] |
| ++ (20%-49% = ++) | 86 (SVDSHFQEV; listed as Homo sapiens) [compound 86] |
| +++ (50%-75% = +++) | 261 (QLQDRVYAL; listed as Homo sapiens) [compound 261] |
| +++ (50%-75% = +++) | 60 (ALFAPLVHL; listed as Homo sapiens) [compound 60] |
| ++ (20%-49% = ++) | 13 (ALMAMLVYV; listed as Homo sapiens) [compound 13] |
| ++++ (≧75% = ++++) | 245 (SLLDLPLSL; listed as Homo sapiens) [compound 245] |
| ++++ (≧75% = ++++) | 133 (ALLPRLHQL; listed as Homo sapiens) [compound 133] |
| +++ (50%-75% = +++) | 36 (SLADTNSLAVV; listed as Homo sapiens) [compound 36] |

| Peptide exchange | Substance |
| --- | --- |
| +++ (50%-75% = +++) | 155 (LLNPVVEFV; listed as Homo sapiens) [compound 155] |
| +++ (50%-75% = +++) | 54 (VLNPLITAV; listed as Homo sapiens) [compound 54] |
| ++++ (≧75% = ++++) | 95 (GLLGSLFFL; listed as Homo sapiens) [compound 95] |
| ++++ (≧75% = ++++) | 129 (RLQDILWFL; listed as Homo sapiens) [compound 129] |
| +++ (50%-75% = +++) | 132 (ILGEVLAQL; listed as Homo sapiens) [compound 132] |
| +++ (50%-75% = +++) | 142 (ILVEGISTV; listed as Homo sapiens) [compound 142] |
| +++ (50%-75% = +++) | 101 (ALADFMLSL; listed as Homo sapiens) [compound 101] |
| +++ (50%-75% = +++) | 114 (QLIQTLHAV; listed as Homo sapiens) [compound 114] |
| +++ (50%-75% = +++) | 72 (FLTAINYLL; listed as Homo sapiens) [compound 72] |
| + (<20% = +) | 120 (VTPVTVSAV; listed as Homo sapiens) [compound 120] |
| +++ (50%-75% = +++) | 39 (HLLEGSVGV; listed as Homo sapiens) [compound 39] |
| ++++ (≧75% = ++++) | 258 (LLSERFINV; listed as Homo sapiens) [compound 258] |
| +++ (50%-75% = +++) | 70 (LLLGDSALYL; listed as Homo sapiens) [compound 70] |
| ++ (20%-49% = ++) | 256 (SLGEEQFSV; listed as Homo sapiens) [compound 256] |
| +++ (50%-75% = +++) | 157 (TLTSLLAQA; listed as Homo sapiens) [compound 157] |
| +++ (50%-75% = +++) | 59 (KLLDPQEFTL; listed as Homo sapiens) [compound 59] |
